# Test results taken from US10584105B2, “Immunoproteasome inhibitor analogs” (The Regents of the University of California, priority 2016, dated 2020).
# What was measured:
# [1] = test system: MYCN2 neuroblastoma cells; test: Cell viability assay (MTS), MYCN2 neuroblastoma cells; assay type: cell-based, human; conditions: for effect on viability of MYCN2 cells: highest concentration tested (1 μM), 24 hours exposure
# Experimental: (§1) (A) MYCN2, (B) SK—N—Be(2)c, and (C) SK—N—SH neuroblastoma cells were treated with 1 (NAM-105), 5 (NAM-93), or 6 (NAM-95) for 24 hours at three different concentrations (0.01, 0.1, and 1 μM). Bortezomib (BTZ) was included as a control. Cell viability was measured using the MTS reagent as described in the Methods section. Data shown are representative of two independent experiments, each performed in triplicate wells (n=6).
# (§2) To determine the effect of the thiasyrbactins proteasome inhibitors on the viability of cancer cells, three different human neuroblastoma (NB) cell lines were used. BTZ was included as a control. SK—N—Be2c, SK—N—SH cells (ATCC, Manassas, Va.) and MYCN2 cells were plated overnight in RPMI media containing 10% heat-inactivated fetal bovine serum (FBS) (Invitrogen, Carlsbad, Calif., USA), supplemented with penicillin (100 U/ml) and streptomycin (100 μg/ml). Cells were cultured at 37° C. in a humidified atmosphere containing 5% CO2 and treated with 0.01, 0.1 and 1 μM proteasome inhibitor for 24 hours. Cell viability was determined using the Cell Titer 96 AQueous One Cell Proliferation Assay (Promega) reagent MTS by measuring absorbance at 490 nm using a Multi-Mode Synergy plate reader as Ibarra-Rivera et al. Assays were done in duplicate with triplicate wells of treatment per experiment (n=6). Data were expressed as the average cell viability relative to untreated control cells using Microsoft Excel™.
# [2] = test system: SK—N—SH neuroblastoma cells; test: Cell viability assay (MTS), SK—N—SH neuroblastoma cells; assay type: cell-based, human; conditions: for effect on viability of SK—N—SH cells: highest concentration tested (1 μM), 24 hours exposure
# Experimental: as §1, §2
# [3] = molecular target: T1, 20S constitutive proteasome from human erythrocytes, CT-L (β5) activity (Homo sapiens, UniProt P20618+P28074); test: In vitro proteasome activity assay, constitutive proteasome, CT-L (β5); assay type: biochemical; conditions: 1 μM
# T1 construct: purchased Boston Biochem; host or cells: human erythrocytes (native, purified)
# Experimental: (§3) To determine the anti-proteasome activity of the thiasyrbactins in the in vitro environment, three catalytic activities (β1, β2, β5) of the proteasome were measured as described in Ibarra-Rivera et al., Tetrahedron 67:9950-6 (2011)). […] Purified 20S constitutive proteasome from human erythrocytes or immunoproteasome from human peripheral blood mononuclear cells (PBMCs) (Boston Biochem, Cambridge, Mass.) and luminogenic substrates Z-LRR-Glo, Z-nLPnLD-Glo, and Suc-LLVY-Glo (Promega, Fitchburg, Wis.) specific for the β1, β2, and β5 (also referred to as T-L, C-L, and CT-L) catalytic subunit activities, respectively, were used. […] Equal volume of the appropriate luminogenic substrate was added to each reaction and luminescence was measured 10 minutes later using a Multi-Mode Synergy (Biotek, Inc., Winooski, Vt.) plate reader. […] The Ki-50 values for each catalytic activity were determined for each of the inhibitors using Graphpad Prism 5 software (La Jolla, Calif.) and averaged using Microsoft Excel (Redmond, Wash.).
# (§4) The thiasyrbactins were evaluated for their ability to inhibit each of the catalytic subunits of the constitutive and immunoproteasomes as well as for cytotoxic activity against neuroblastoma cancer cells. […]
# [4] = molecular target: T2, immunoproteasome from human peripheral blood mononuclear cells (PBMCs), CT-L (β5) activity (Homo sapiens, UniProt P20618+P28062); test: In vitro proteasome activity assay, immunoproteasome, CT-L (β5); assay type: biochemical; conditions: for effect on CT-L activity of the immunoproteasome: at ≤10 μM; for effect on CT-L (chymotrypsin-like) activity of the immunoproteasome (FIG. 5): 1.0 μM, 2 hours
# T2 construct: purchased Boston Biochem; host or cells: human peripheral blood mononuclear cells (native, purified)
# Experimental: To determine the anti-proteasome activity of the thiasyrbactins in the in vitro environment, three catalytic activities (β1, β2, β5) of the proteasome were measured as described in Ibarra-Rivera et al., Tetrahedron 67:9950-6 (2011)). […] Purified 20S constitutive proteasome from human erythrocytes or immunoproteasome from human peripheral blood mononuclear cells (PBMCs) (Boston Biochem, Cambridge, Mass.) and luminogenic substrates Z-LRR-Glo, Z-nLPnLD-Glo, and Suc-LLVY-Glo (Promega, Fitchburg, Wis.) specific for the β1, β2, and β5 (also referred to as T-L, C-L, and CT-L) catalytic subunit activities, respectively, were used. Briefly, 2.2 ng/μL of constitutive proteasome and immunoproteosome were incubated with increasing concentration of proteasome inhibitor (0 to 10 μM) in 10 mM HEPES, pH 7.3, for two hours at 37° C. Equal volume of the appropriate luminogenic substrate was added to each reaction and luminescence was measured 10 minutes later using a Multi-Mode Synergy (Biotek, Inc., Winooski, Vt.) plate reader. Assays were done in triplicate (n=3). The Ki-50 values for each catalytic activity were determined for each of the inhibitors using Graphpad Prism 5 software (La Jolla, Calif.) and averaged using Microsoft Excel (Redmond, Wash.).
# The thiasyrbactins were evaluated for their ability to inhibit each of the catalytic subunits of the constitutive and immunoproteasomes as well as for cytotoxic activity against neuroblastoma cancer cells. To test the inhibitory activity of 1 (NAM-105), 5 (NAM-93), and 6 (NAM-95), an in vitro assay was performed to test the effect of the thiasyrbactins on the three sub-catalytic activities (i.e., the CT-L, C-L, and T-L activities) of the constitutive proteasome and the immunoproteasome (Table 5).
# [5] = molecular target: T3, immunoproteasome from human peripheral blood mononuclear cells (PBMCs), C-L (β1) activity (Homo sapiens, UniProt P28065); test: In vitro proteasome activity assay, immunoproteasome, C-L (β1); assay type: biochemical
# T3 construct: purchased Boston Biochem; host or cells: human peripheral blood mononuclear cells (native, purified)
# Experimental: as §3, §4
# [6] = test system: ARD multiple myeloma (MM) cells; test: Cell viability (MTS), ARD multiple myeloma cells; assay type: cell-based; conditions: Homo sapiens, 24 hours, MTS assay, N=3, read-out: IC-50 cell viability ARD cells
# Experimental: (§5) N=3. Cells were incubated for 24 hours in the presence of 1 (NAM-105), 5 (NAM-93), 6 (NAM-95) or DMSO (control) and cell viability measured using the MTS assay. IC-50s for ARD cells are 4.085±0.865 μM (5, NAM-93), N/A (6, NAM-95), and 1.673±0.337 μM (1, NAM-105). IC-50 for U266 cells are 3.308±0.916 μM (5, NAM-93), N/A (6, NAM-95), and 1.474±0.577 μM (1, NAM-105). N/A; not applicable (50% inhibition not reached at tested concentrations).
# [7] = test system: U266 multiple myeloma (MM) cells; test: Cell viability (MTS), U266 multiple myeloma cells; assay type: cell-based; conditions: Homo sapiens, U-266; 24 hours, MTS assay, N=3; read-out: IC-50 cell viability U266 cells
# Experimental: as §5
# [8] = test system: SK—N—Be(2)c neuroblastoma cells; test: Cell viability assay (MTS), SK—N—Be(2)c neuroblastoma cells; assay type: cell-based, human; conditions: highest concentration tested (1 μM), 24 hours exposure
# Experimental: as §1
# as §2, with “Cells were cultured at 37° C. in a humidified atmosphere containing 5% CO2 and treated with 0.01, 0.1 and 1 μM proteasome inhibitor for 24 hours.” left out
# [9] = molecular target: T4, immunoproteasome from human peripheral blood mononuclear cells (PBMCs), T-L (β2) activity (Homo sapiens, UniProt P40306+P49720); test: In vitro proteasome activity assay, immunoproteasome, T-L (β2); assay type: biochemical; conditions: 1 μM
# T4 construct: purchased Boston Biochem; host or cells: human peripheral blood mononuclear cells (native, purified)
# Experimental: as §3, §4
structure (smiles),measurement,setting,value
"CC(C)C[C@H](NC(=O)[C@H](Cc1ccccc1)NC(=O)c1cnccn1)B(O)O [BTZ, bortezomib, reference compound]",cytotoxic effects in MYCN2 cells,"[1]; 0.1-1 μM, 24 hours",strong cytotoxic effects
same,cytotoxic effects in SK—N—SH cells,"[2]; 0.1-1 μM, 24 hours",strong cytotoxic effects
"CCCCCCCCCCCCNC(=O)N[C@H](C(=O)N[C@H]1CSCCNC(=O)/C=C/[C@H](C)NC1=O)C(C)C [Compound 1, (S)-2-(3-Dodecylureido)-3-methyl-N-((8S,11R,E)-8-methyl-5,10-dioxo-1-thia-4,9-diazacyclododec-6-en-11-yl)butanamide]","activity vs. the chymotrypsin-like activity of the constitutive proteasome (screen, FIG. 5)",[3],greatest activity
same,effect on CT-L activity of the immunoproteasome,[4],no effect
same,effect on C-L activity of the immunoproteasome,[5],no effect
same,"viability of MYCN2 cells, % of control (DMSO)","[1]; 24 hours, of control (DMSO)",30-50%
same,"viability of SK—N—SH cells, % of control (DMSO)","[2]; 24 hours, of control (DMSO)",30-50%
same,IC50,[6],1670 ± 337 nM
same,IC50,[7],1470 ± 577 nM
"CCCCCCCCCCCCNC(=O)N[C@H](C(=O)N[C@H]1C[S+]([O-])CCNC(=O)/C=C/[C@H](C)NC1=O)C(C)C (stereo partly drawn) [Compound 2, (2S)-2-(3-Dodecylureido)-3-methyl-N-((8S,11R,E)-8-methyl-1-oxido-5,10-dioxo-1-thia-4,9-diazacyclododec-6-en-11-yl)butanamide]",effect on viability of MYCN2 cells,[1],minimal effects
same,effect on viability of SK—N—Be(2)c cells,[8],minimal effects
same,effect on viability of SK—N—SH cells,[2],minimal effects
"CC(C)Cc1ccc([C@H](C)C(=O)N[C@H](C(=O)N[C@H]2CSCCNC(=O)/C=C/[C@H](C)NC2=O)C(C)C)cc1 [Compound 5, (S)-2-((S)-2-(4-Isobutylphenyl)propanamido)-3-methyl-N-((8S,11R,E)-8-methyl-5,10-dioxo-1-thia-4,9-diazacyclododec-6-en-11-yl)butanamide]",effect on CT-L (chymotrypsin-like) activity of the immunoproteasome (FIG. 5),[4],stimulate
same,effect on CT-L activity of the immunoproteasome,[4],no effect
same,effect on C-L activity of the immunoproteasome,[5],no effect
same,"inhibition vs. the trypsin-like activity of the immunoproteasome (screen, FIG. 5)",[9],good inhibition
same,effect on viability of MYCN2 cells,[1],minimal effects
same,effect on viability of SK—N—Be(2)c cells,[8],minimal effects
same,effect on viability of SK—N—SH cells,[2],minimal effects
same,IC50,[6],4080 ± 865 nM
same,IC50,[7],3310 ± 916 nM
"CC(C)[C@H](NC(=O)c1cnccn1)C(=O)N[C@H]1CSCCNC(=O)/C=C/[C@H](C)NC1=O [Compound 6, N—((S)-3-Methyl-1-(((8S,11R,E)-8-methyl-5,10-dioxo-1-thia-4,9-diazacyclododec-6-en-11-yl)amino)-1-oxobutan-2-yl)pyrazine-2-carboxamide]",effect on CT-L (chymotrypsin-like) activity of the immunoproteasome (FIG. 5),[4],stimulate
same,"inhibition vs. the trypsin-like activity of the immunoproteasome (screen, FIG. 5)",[9],good inhibition
